Data on two compounds can be found in patent US5559110A, “Pharmaceutical formulations of cyclic urea type compounds” (The DuPont Merck Pharmaceutical Company, priority 1994, dated 1996).

SMILES strings stand for the structures. ≈ marks a conversion by molar mass, not a printed value.

The format of data set [1] is physicochemical. The protocol: Vehicles were evaluated for their capacity to solubilize a cyclic urea compound. Several methods were used. In Method A, vehicles were heated to 70°-80° C. and weighed amounts of the cyclic urea compound were added incrementally until the compound no longer dissolved. This is a visual estimation of solubility. In Method B, vehicles were prepared as in Method A, then cooled to room temperature, and then reheated to 50° C. Suspensions were filtered at 50° C. and compound concentrations in the liltrate filtrate were measured using a high performance liquid chromatographic (HPLC) method, providing the results shown under Method B.
Specifically, the vehicles of Table 1 were prepared and evaluated for solubility of a cyclic urea antiviral agent. The agent for Example 1 was [4R--(4a, 5a, 6β, 7β)]-hexahydro-5,6-bis(hydroxy)-1,3-bis([(4-hydroxymethyl)phenyl]methyl)-4,7-bis(phenylmethyl)-2H-1,3-diazepin-2-one. This compound corresponds to Ex. No. 5U in the above-cited PCT Application WO 93/07128, and is sometimes hereinafter referred to as Ex. No. 5U. In Table 1, all percentages are by weight.

The nature of data set [2]: physchem. The data set is classed as physicochemical. An excerpt:
The cyclic urea antiviral agents of this invention are generally poorly water-soluble. Poor water solubility could be related to low oral bioavailability and dose-related bioavailability. One effect of the formulation ingredients may be to alter water solubility. Water solubility in the presence of dilute concentrations of the formulation ingredients could then be related to oral bioavailability. Dilute formulation ingredients could mimic the dilution of an administered dosage form upon reaching the aqueous environment within the gastrointestinal tract. Aqueous solubility studies of cyclic urea antiviral agents were performed in the presence of dilute concentrations of possible formulation ingredients in this Example 4.
Specifically, aqueous solutions were prepared containing 4% (w/v) of the formulation ingredients listed. Excess solid compound [4R-(4α, 5α, 6β, 7β)]-hexahydro-5,6-bis (hydroxy)-1,3-bis ([(4-hydroxymethyl)phenyl]methyl)-4,7-bis (phenylmethyl)-2H-1,3-diazepin-2-one (Ex. No. 5U) was added and the samples were mixed 24 hours. Samples were filtered, and Ex. No. 5U solubility was determined by measuring filtrate drug concentrations using HPLC.

For data set [3] the following is noted: in vivo; cited from earlier work.

The solubility is how much of the substance goes into solution per volume. In the case of `O=C1N(Cc2ccc(CO)cc2)[C@H](Cc2ccccc2)[C@H](O)[C@@H](O)[C@@H](Cc2ccccc2)N1Cc1ccc(CO)cc1` [Ex. No. 5U, [4R-(4α, 5α, 6β, 7β)]-hexahydro-5,6-bis(hydroxy)-1,3-bis([(4-hydroxymethyl)phenyl]methyl)-4,7-bis(phenylmethyl)-2H-1,3-diazepin-2-one], in data set [1], the “solubility in vehicle (in words)” value is “increased solubility”. The solubility at 24 h in data set [2] (4% peg-60 hydrogenated castor oil, organic solvent or mixture) came out at 715 µg/mL (≈ 1260 µM); in data set [2] (water), 5 µg/mL (≈ 8.82 µM); in data set [2] (water with 4% peg-8, organic solvent or mixture), 12 µg/mL (≈ 21.2 µM); in data set [2] (water, 4% gelucire 44/14), 758 µg/mL (≈ 1340 µM); in data set [2] (water, 4% glycerol dilaurate, organic solvent or mixture) it was 11 µg/mL (≈ 19.4 µM); in data set [2] (water, 4% labrasol), 410 µg/mL (≈ 723 µM). For the same compound, the solubility at 24 h in data set [2] (water, 4% peg-4 laurate, organic solvent or mixture) is 81 µg/mL (≈ 143 µM); in data set [2] (water, 4% peg-8 laurate, organic solvent or mixture), 283 µg/mL (≈ 499 µM); in data set [2] (water, 4% peg-8 stearate, organic solvent or mixture), 44 µg/mL (≈ 77.6 µM); in data set [2] (water, 4% peg-40 stearate, organic solvent or mixture) it was 718 µg/mL (≈ 1270 µM).

For `COC1=CC(=O)C[C@@H](C)[C@]12Oc1c(Cl)c(OC)cc(OC)c1C2=O` [griseofulvin], the “oral bioavailability (in words)” value in data set [3] is “increased”.
